Assay results reported in US11371055B2, “Herbicide resistance genes” (CORTEVA AGRISCIENCE LLC, priority 2005, dated 2022).

Key:
[1] = system: AAD-12 (v1) T1 tobacco plants; test: Cross tolerance of T1 tobacco to phenoxy and pyridyloxy auxin herbicides; type: in vivo, Nicotiana tabacum
Excerpt: Two to four T0 individuals surviving high rates of 2,4-D and fluroxypyr were saved from each event and allowed to self fertilize in the greenhouse to give rise to T1 seed. The T1 seed was stratified, and sown into selection trays much like that of Arabidopsis (Example 7.4), followed by selective removal of untransformed nulls in this segregating population with 560 g ai/ha glufosinate (PAT gene selection). Survivors were transferred to individual 3-inch pots in the greenhouse. These lines provided high levels of resistance to 2,4-D in the T0 generation. Improved consistency of response is anticipated in T1 plants not having come directly from tissue culture. These plants were compared against wildtype KY160 tobacco. All plants were sprayed with a track sprayer set at 187 L/ha. The plants were sprayed from a range of 140-2240 g ac/ha 2,4-D dimethylamine salt (DMA), 70-1120 g ace/ha triclopyr or 35-560 g ae/ha fluroxypyr. All applications were formulated in water. Each treatment was replicated 2-4 times. Plants were evaluated at 3 and 14 days after treatment. Plants were assigned injury rating with respect to stunting, chlorosis, and necrosis. The T1 generation is segregating, so some variable response is expected due to difference in zygosity.

[2] = system: wild-type canola (Nex710); test: Field tolerance of canola, wild-type; type: in vivo, Brassica napus; conditions: for % Visual Injury at 14 DAT: Wild Type (Nex710)
Protocol: Field level tolerance trial was conducted on two AAD-12 (v1) events 3759(20)018.001 and 3759(18)030.001 and a wild-type canola (Nex710) in Fowler, Ind. The experimental design was a randomized complete block design with 3 replications. Herbicide treatments were 2,4-D (dimethylamine salt) at 280, 560, 1120, 2240 and 4480 g ac/ha, triclopyr at 840 g ae/ha, fluroxypyr at 280 g ae/ha and an untreated control. Within each herbicide treatment, single 20 ft row/event for event 3759(18)030.0011, 3759(18)018.001 and wild-type line (Nex710) were planted with a 4 row drill on 8 inch row spacing. Herbicide treatments were applied when canola reached the 4-6 leaf stage using compressed air backpack sprayer delivering 187 L/ha carrier volume at 130-200 kpa pressure. Visual injury ratings were taken at 7, 14 and 21 days after application.

[3] = system: Roundup Ready (RR) control corn hybrid (2P782); test: Field tolerance of corn: visual injury and brace root injury, control hybrid; type: in vivo, Zea mays; conditions: for visual injury: 14 DAT; for % Visual Injury 14DAT: 2P782 control
Protocol: (§1) Seeds were planted with cone planter on 40-inch row spacing at Wayside and 30 inch spacing at Fowler. […] Herbicide treatments were 2,4-D (dimethylamine salt) at 1120, 2240 and 4480 g ae/ha, triclopyr at 840 g ae/ha, fluroxypyr at 280 g ae/ha and an untreated control. The AAD-12 (v1) events contained the AHAS gene as a selectable marker. The F2 corn events were segregating so the AAD-12 (v1) plants were treated with imazethapyr at 70 g ae/ha to remove the null plants. Herbicide treatments were applied when corn reached the V6 stage using compressed air backpack sprayer delivering 187 L/ha carrier volume at 130-200 kpa pressure. Visual injury ratings were taken at 7, 14 and 21 days after treatment.

wildtype tobacco = test: Auxinic herbicide cross tolerance of stacked tobacco, wildtype; type: in vivo, Nicotiana tabacum; conditions: KY160 wildtype control
Protocol: Homozygous AAD-12 (v1) (pDAS1580) and AAD-1 (v3) (pDAB721) plants (see PCT/US2005/014737 for the latter) were both reciprocally crossed and F1 seed was collected. The F1 seed from two reciprocal crosses of each gene were stratified and treated 4 reps of each cross were treated under the same spray regimen as used for the other testing with one of the following treatments: 70, 140, 280 g ac/ha fluroxypyr (selective for the AAD-12 (v1) gene); 280, 560, 1120 g ae/ha R-dichloroprop (selective for the AAD-1 (v3) gene); or 560, 1120, 2240 g ae/ha 2,4-D DMA (to confirm 2,4-D tolerance). Homozygous T2 plants of each gene were also planted for use as controls. Plants were graded at 3 and 14 DAT.

[4] = system: AAD-12 (v1) pDAB4101 corn events (4101(0)003.R.003.AF and 4101(0)005.R001.AF); test: Field tolerance of corn: visual injury and brace root injury, AAD-12 events; type: in vivo, Zea mays
Protocol: as §1, with “Visual injury ratings were taken at 7, 14 and 21 days after treatment.” left out

[5] = 2× rate of triclopyr (840 g ae/ha), 14 DAT

CNC.O=C(O)COc1ccc(Cl)cc1Cl [2,4-D DMA]
Average % Injury of Replicates 14 DAT ([1]; T1 1580(1)-004, 140 g ae/ha): 0% | Average % Injury of Replicates 14 DAT ([1]; T1 1580(1)-004, 560 g ae/ha): 0% | Average % Injury of Replicates 14 DAT ([1]; T1 1580(1)-004, 2240 g ae/ha): 0% | Average % Injury of Replicates 14 DAT ([1]; T1 1580(1)-018, 140 g ae/ha): 0% | Average % Injury of Replicates 14 DAT ([1]; T1 1580(1)-018, 560 g ae/ha): 0% | Average % Injury of Replicates 14 DAT ([1]; T1 1580(1)-018, 2240 g ae/ha): 0%

O=C(O)COc1ccc(Cl)cc1Cl [2,4-D, 2,4-dichlorophenoxyacetic acid]
visual injury ([2]; 2,4-D at 2240 g ae/ha (4× rate), 14DAT): 72% | % Visual Injury at 14 DAT ([2]; 280 GM AE/HA): 0 e % | % Visual Injury at 14 DAT ([2]; 560 GM AE/HA): 15 d % | % Visual Injury at 14 DAT ([2]; 1120 GM AE/HA): 33 bc % | % Visual Injury at 14 DAT ([2]; 2240 GM AE/HA): 48 a % | visual injury ([3]; 2,4-D at 4480 g ae/ha, V6 stage): 44% | % Visual Injury 14DAT ([3]; 1120 g ae/ha): 9% | % Visual Injury 14DAT ([3]; 2240 g ae/ha): 20% | % Visual Injury 14DAT ([3]; 4480 g ae/ha): 34% | brace root injury ([3]; 4480 g ae/ha of 2,4-D): severe brace root fusing and malformation | Brace Root Injury Rating (0-10 scale) 28DAT ([3]; Wild-type NK603, 1120 g ae/ha): 3 | Brace Root Injury Rating (0-10 scale) 28DAT ([3]; Wild-type NK603, 2240 g ae/ha): 5 | Brace Root Injury Rating (0-10 scale) 28DAT ([3]; Wild-type NK603, 4480 g ae/ha): 6 | Average % injury 14 DAT (wildtype tobacco; 560 g ae/ha): 63% | Average % injury 14 DAT (wildtype tobacco; 1120 g ae/ha): 80% | Average % injury 14 DAT (wildtype tobacco; 2240 g ae/ha): 90% | visual injury ([4]; 2,4-D at the 1, 2 and 4× rates, V6 stage, 14 DAT): 0% | brace root injury ([4]; 4480 g ae/ha of 2,4-D): no brace root injury | % Visual Injury 14DAT ([4]; AAD-12 4101(0)003.R.003.AF, 1120 g ae/ha): 0% | % Visual Injury 14DAT ([4]; AAD-12 4101(0)003.R.003.AF, 2240 g ae/ha): 0% | % Visual Injury 14DAT ([4]; AAD-12 4101(0)003.R.003.AF, 4480 g ae/ha): 0% | % Visual Injury 14DAT ([4]; AAD-12 4101(0)005.001.AF, 1120 g ae/ha): 0% | % Visual Injury 14DAT ([4]; AAD-12 4101(0)005.001.AF, 2240 g ae/ha): 1% | % Visual Injury 14DAT ([4]; AAD-12 4101(0)005.001.AF, 4480 g ae/ha): 1% | Brace Root Injury Rating (0-10 scale) 28DAT ([4]; AAD-12 event 4101(0)003.R.003.AF, 1120 g ae/ha): 0 | Brace Root Injury Rating (0-10 scale) 28DAT ([4]; AAD-12 event 4101(0)003.R.003.AF, 2240 g ae/ha): 0 | Brace Root Injury Rating (0-10 scale) 28DAT ([4]; AAD-12 event 4101(0)003.R.003.AF, 4480 g ae/ha): 0 | Brace Root Injury Rating (0-10 scale) 28DAT ([4]; AAD-12 event 4101(0)005.001.AF, 1120 g ae/ha): 0 | Brace Root Injury Rating (0-10 scale) 28DAT ([4]; AAD-12 event 4101(0)005.001.AF, 2240 g ae/ha): 0 | Brace Root Injury Rating (0-10 scale) 28DAT ([4]; AAD-12 event 4101(0)005.001.AF, 4480 g ae/ha): 0 | injury ([1]; 4× field rate (2240 g ae/ha) for 2,4-D or below): No injury

C[C@@H](Oc1ccc(Cl)cc1Cl)C(=O)O [(R)-dichlorprop, R-2,4-dichlorophenoxypropionic acid]
Average % injury 14 DAT (wildtype tobacco; 280 g ae/ha): 25% | Average % injury 14 DAT (wildtype tobacco; 560 g ae/ha): 60% | Average % injury 14 DAT (wildtype tobacco; 1120 g ae/ha): 80%

O=C(O)COc1nc(Cl)c(Cl)cc1Cl [triclopyr]
visual injury [2, 5]: 25% | % Visual Injury at 14 DAT ([2]; 840 GM AE/HA): 25 cd % | % Visual Injury 14DAT ([3]; 840 g ae/ha): 31% | visual injury ([3]; 2× rate of triclopyr (840 g ae/ha)): 31% | average brace root injury score (0-10 scale) ([3]; Triclopyr at 840 g ae/ha, 28DAT): 7 | Brace Root Injury Rating (0-10 scale) 28DAT ([3]; Wild-type NK603, 840 g ae/ha): 7 | visual injury, average across the two events [4, 5]: 3% | % Visual Injury 14DAT ([4]; AAD-12 4101(0)003.R.003.AF, 840 g ae/ha): 3% | % Visual Injury 14DAT ([4]; AAD-12 4101(0)005.001.AF, 840 g ae/ha): 4% | Brace Root Injury Rating (0-10 scale) 28DAT ([4]; AAD-12 event 4101(0)003.R.003.AF, 840 g ae/ha): 0 | Brace Root Injury Rating (0-10 scale) 28DAT ([4]; AAD-12 event 4101(0)005.001.AF, 840 g ae/ha): 0 | brace root injury ([4]; Triclopyr at 840 g ae/ha): no brace root injury | injury ([1]; 70-1120 g ae/ha triclopyr, in one event line): Some injury | Average % Injury of Replicates 14 DAT ([1]; T1 1580(1)-004, 70 g ae/ha): 0% | Average % Injury of Replicates 14 DAT ([1]; T1 1580(1)-004, 280 g ae/ha): 0% | Average % Injury of Replicates 14 DAT ([1]; T1 1580(1)-004, 1120 g ae/ha): 0% | Average % Injury of Replicates 14 DAT ([1]; T1 1580(1)-018, 70 g ae/ha): 5% | Average % Injury of Replicates 14 DAT ([1]; T1 1580(1)-018, 280 g ae/ha): 5% | Average % Injury of Replicates 14 DAT ([1]; T1 1580(1)-018, 1120 g ae/ha): 8%
